Experimental data: ChEMBL document CHEMBL1201862, “PubChem BioAssay data set” (2004)
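96-well plates; 48 h exposure; 5 concentrations. Endpoints by linear interpolation between flanking doses. Not reached: highest tested concentration assigned. GI50 = concentration required for 50% inhibition of growth.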 The source made the active and inactive calls. Cut-off read from the data, not from the text of the source: active = GI50 up to about 1.1 µM and inactive = higher.

Tested on: Hs-578T
Test: DTP human tumour cell line panel, 48 h

Row | SMILES | GI50
1 | O=c1cc(-c2ccc(O)c(O)c2)oc2cc(O[C@H]3O[C@H](CO)[C@@H](O)[C@H](O)[C@H]3O)cc(O)c12 | 29.3 µM (inactive)
2 | COc1c2c(c3c(c1CCC(=O)O)OC(C)(C)C=C3)OC(C)(C)C=C2 | 83.8 µM (inactive)
3 | O=C(Nc1sccc1S(=O)(=O)c1ccccc1)c1ccccc1 | > 100 µM (inactive)
4 | COC(=O)CN1CCN(c2cccc3c2CCCC3)CC1 | > 100 µM (inactive)
5 | CCOC(=O)c1c(SC(=O)c2ccc(Cl)cc2)n(-c2ccccc2)c(=S)n(-c2ccccc2)c1=O | > 100 µM (inactive)
6 | O=[N+]([O-])/C(Cl)=C(/C(Cl)=C(Cl)Cl)N1CCOCC1 | 3.8 µM (inactive)
7 | O=C(O)CSC1=NC(=O)C2(NN1)c1ccccc1-c1ccccc12 | > 10 µM (inactive)
8 | CC(=O)Nc1ccc2nc(-c3ccccn3)c(-c3ccccn3)nc2c1 | > 100 µM (inactive)
9 | O=C1c2ccccc2-n2c1nc1cc(Cl)ccc1c2=O | 20.2 µM (inactive)
10 | COc1ccc(NC(=S)Nc2cc(C)ccn2)cc1 | > 100 µM (inactive)
11 | CC(=O)OCCn1c(Cc2ccc(Cl)cc2)nn(C(C)=O)c1=O | > 100 µM (inactive)
12 | CC1=NN(c2ccccc2Cl)C2(C1)C(Cl)C(=O)N2c1nc2ccccc2s1 (configuration not stated) | > 100 µM (inactive)
13 | CC(C)OC(=O)C1=C2c3ncccc3C(=O)N2[C@@H](Cl)[C@H](Cl)[C@H]1Cl | > 100 µM (inactive)
14 | Brc1ccccc1/C=C\C1(c2ccccc2)OCCO1 | 7.6 µM (inactive)
15 | COC(=O)c1cc(C)ccc1CC(Cc1ccc(C)cc1)C(=O)OC (configuration not stated) | 21.2 µM (inactive)
16 | CSc1ncc2c(n1)-c1ccccc1OC2N1CCCC1 (configuration not stated) | 39.1 µM (inactive)
17 | N=C(N)NCCCC(NC(=O)OCCCCCCn1ccc(N)nc1=O)C(=O)O (configuration not stated) | > 100 µM (inactive)
18 | CC1=CC(C2/C(=N/O)C=C(C)CC2(C)C)C(O)C(C)(C)C1 (configuration not stated) | 31.8 µM (inactive)
19 | Nc1ccccc1CCN1CCN(CCCc2ccccc2)CC1 | > 100 µM (inactive)
20 | CN1C(=O)NC(=O)/C(=C\Nc2ncccn2)C1=O | > 100 µM (inactive)
21 | NC1=C(N2CCOCC2)C(=O)NC2=N/C(=C\c3ccccc3O)C(=O)N21 | > 100 µM (inactive)

Row | SMILES | GI50
22 | Cc1nc(-c2ccc([N+](=O)[O-])cc2)cn2c1nc1ccccc12 | > 100 µM (inactive)
23 | CC1CN=C(Nc2cccc(F)c2)S1 (configuration not stated) | > 100 µM (inactive)
24 | COC(=O)/C(C#N)=C(\Nc1ccccc1)N1CCCCC1 | > 100 µM (inactive)
25 | COC1(OC)N=C(N)C2(C#N)C(c3ccccc3)NC3=C(CCC3)C12C#N (configuration not stated) | > 100 µM (inactive)
26 | Brc1c(C#CCC(c2ccccc2)(c2ccccc2)c2ccccc2)ccc(C#CCC(c2ccccc2)(c2ccccc2)c2ccccc2)c1Br | > 100 µM (inactive)
27 | CC1=C2NCN(C)N=C2C(C#N)(C#N)C1(C#N)C#N | 32.6 µM (inactive)
28 | CC(C)CCOC(=O)NC(Nc1ccc(F)cc1)(C(F)(F)F)C(F)(F)F | > 100 µM (inactive)
29 | CC(C)CCn1nc(N)c2nc3ccccc3nc21 | > 100 µM (inactive)
30 | CC1=C(C(=O)NC(C)(C)C)CC(C(=O)NC(C)(C)C)C(C)N1 (configuration not stated) | > 100 µM (inactive)
31 | Clc1ccc(NCc2nnc(CCCCCCCCc3nnc(CNc4ccc(Cl)cc4)o3)o2)cc1 | > 100 µM (inactive)
32 | O=[N+]([O-])c1ccc2c(c1)Sc1ccccc1N2CCCCCl | > 100 µM (inactive)
33 | CCN(CC)CCN1C(=O)C(=O)N(c2cccc3ccccc23)C1=O | 8.65 µM (inactive)
34 | CCOc1cc(C(=O)O)c2c(ccc3ccc(OC)c(OC)c32)c1OC | > 100 µM (inactive)
35 | O=C(NC(CO)CO)c1ccc2cc(C(=O)N3CC(CCl)c4ccc([N+](=O)[O-])cc43)[nH]c2c1 (configuration not stated) | > 100 µM (inactive)
36 | CCCC(=O)NC(Nc1cc(C)ccn1)(C(=O)OCC)C(F)(F)F (configuration not stated) | > 100 µM (inactive)
37 | CCOC(=O)C(C)c1nc2cc(F)c(N3CCOCC3)cc2[nH]c1=O (configuration not stated) | > 100 µM (inactive)
38 | COc1cc(COC(=O)N2CCCCC2C(=O)O)c([N+](=O)[O-])cc1OC (configuration not stated) | > 100 µM (inactive)
39 | COc1ccc(OC)c2c1C1CCC(=O)N1CN2C(C)=O (configuration not stated) | > 100 µM (inactive)
40 | O=C1/C(=C/c2ccco2)N=C(c2ccccc2)N1c1cc2cc(Sc3ccccc3)ccc2[nH]1 | 15.3 µM (inactive)
41 | [O-][S+](Nc1ccccc1)c1ccccc1Oc1ccccc1 (configuration not stated) | 2.84 µM (inactive)
42 | Nc1ccc(-c2nc3ccc(F)cc3s2)cc1I | 22.2 µM (inactive)
